The values that follow come from patent publication US9242991B2, “Substituted fused heterocycles as c-Met tyrosine kinase inhibitors” (BETTA PHARMACEUTICALS CO., LTD, priority 2010, dated 2016).

Where “and” joins values, the source holds several entries; their conditions need not be identical. Equal values may be shown once.

As a reminder, the IC50 is the concentration at which inhibition is half-maximal. One may read the ED50 as the dose that gives a 50% effect, or the effect in half of the subjects. Usually melting point stands for the temperature, or range, at which the solid turns liquid.

The subject of data set [1] is U87MG, MKN45, H441 and Caki-1 tumors. The data set is described as follows: Xenograft Tumor Models (U87MG, MKN45, H441, Caki-1). It counts as in vivo, human. To be noted: oral gavage, athymic nude mice. Here is the method:
(§1) Human glioblastoma cells U87MG, human gastric cancer cells MKN45, human non small cell lung cancer cells H441, and human renal carcinoma cells Caki-1 are expanded in culture, harvested, and injected subcutaneous Iy onto the rear flank of athymic nude mice. Testing compound is prepared in an appropriate vehicle and is administered by oral gavage when tumors are established (7-21 days after implant). Tumor response is determined by tumor volume measurement performed twice a week during the course of treatment. Tumor volume inhibition (% growth inhibition) is calculated by comparing treated groups to a vehicle control group. Body weight is taken as a general measurement of toxicity. […] At 60 mg/kg dose (PO, BID×35), 82% growth inhibition is achieved. At 120 mg/kg dose (PO, BID×35), 92% growth inhibition reaches.
(A xenograft is tissue or cells of one species grown in another, often human tumour cells in immunodeficient mice.)

For data set [2], the target named is T1, c-Met phosphorylation (pY1349) in NCI-H460 cells (Homo sapiens, UniProt P08581).
T1 construct: host or cells: NCI-H460
T1 sequence (P08581 25-1390): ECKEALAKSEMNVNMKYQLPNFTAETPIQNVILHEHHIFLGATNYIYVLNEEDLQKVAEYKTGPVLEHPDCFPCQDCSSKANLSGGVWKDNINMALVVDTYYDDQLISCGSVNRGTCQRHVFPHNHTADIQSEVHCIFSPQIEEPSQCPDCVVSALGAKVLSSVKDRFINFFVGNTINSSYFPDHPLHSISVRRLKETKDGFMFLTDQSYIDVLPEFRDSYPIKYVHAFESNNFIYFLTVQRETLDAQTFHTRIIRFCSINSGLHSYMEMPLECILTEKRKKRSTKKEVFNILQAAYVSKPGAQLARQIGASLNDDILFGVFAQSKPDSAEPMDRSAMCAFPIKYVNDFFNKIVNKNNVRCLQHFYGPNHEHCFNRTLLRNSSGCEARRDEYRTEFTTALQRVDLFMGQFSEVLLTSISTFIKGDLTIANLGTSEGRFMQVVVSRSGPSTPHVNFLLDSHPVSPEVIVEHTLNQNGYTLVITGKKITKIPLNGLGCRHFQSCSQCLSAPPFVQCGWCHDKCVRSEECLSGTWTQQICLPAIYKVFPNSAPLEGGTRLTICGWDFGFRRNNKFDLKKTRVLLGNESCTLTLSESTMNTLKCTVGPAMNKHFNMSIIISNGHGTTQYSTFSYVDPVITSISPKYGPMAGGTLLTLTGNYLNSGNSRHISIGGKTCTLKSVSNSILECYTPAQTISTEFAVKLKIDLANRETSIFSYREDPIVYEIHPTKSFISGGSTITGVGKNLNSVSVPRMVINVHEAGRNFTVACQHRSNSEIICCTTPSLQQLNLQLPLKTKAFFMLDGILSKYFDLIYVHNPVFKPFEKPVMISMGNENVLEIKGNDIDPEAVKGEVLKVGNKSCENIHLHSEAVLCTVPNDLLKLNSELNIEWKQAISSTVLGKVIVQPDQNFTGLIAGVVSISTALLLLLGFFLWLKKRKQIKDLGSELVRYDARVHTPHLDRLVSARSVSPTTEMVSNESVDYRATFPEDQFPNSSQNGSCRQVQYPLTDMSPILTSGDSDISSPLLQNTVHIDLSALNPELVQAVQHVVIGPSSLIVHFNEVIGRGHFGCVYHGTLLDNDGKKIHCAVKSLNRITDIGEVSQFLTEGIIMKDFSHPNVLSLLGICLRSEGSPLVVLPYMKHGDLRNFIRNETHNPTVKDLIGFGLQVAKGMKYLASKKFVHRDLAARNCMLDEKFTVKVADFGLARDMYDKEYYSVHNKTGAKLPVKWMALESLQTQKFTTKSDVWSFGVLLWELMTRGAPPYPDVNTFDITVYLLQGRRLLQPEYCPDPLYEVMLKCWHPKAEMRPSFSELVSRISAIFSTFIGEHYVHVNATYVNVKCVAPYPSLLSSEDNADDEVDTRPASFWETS
The experiment in a line: HGF Stimulated Met (pY1349) NCI-H460 Cell-based ELISA. Particulars: for Mean (Counts − Blanks) / Mean of Activity (% Control) / Activity (% Control) / Counts: 0.2 μM compound; for Mean of Activity (% Control): mean of replicates; for Activity (% Control) / Counts: single replicates. The protocol:
HGF Stimulated Met (pY1349) NCI-H460 Cell-based ELISA NCI-H460 cells (purchased from ATCC) are cultured in RPMI 1640 media (Invitrogen) supplemented with 10% Fetal Bovine Scrum (FBS) and plated (prior to becoming 70% confluent) in 96-well flat-bottom plates at a density of 20,000 cells per well in 80 μL volume. The cells are then incubated overnight in a cell culture incubator (5% CO2, 95% Relative Humidity (RH) and 37° C.) and allowed to attach to the plate. The following morning the cells are washed with 2 volumes of a Reduced Serum Media (RSM) (RPMI 1640 media supplemented with 0.5% FBS). After removal of the last wash, 80 µL of RSM is added to each well of the cell plates. The cell plates are incubated for 2.5 hours in a cell culture incubator, and then dosed with compounds. Compound inhibitors are first solubilized at 10 mM in 100% DMSO and then diluted to 100 μM with 2% DMSO RSM. Subsequently compound serial dilutions (1:3) are prepared over a 100 μM to 0.005 μM range. Cells are dosed with the addition of 20 μL of compound stock to produce a final DMSO concentration of 0.4% and a final compound concentration dose range between 20 and 0.001 μM. After dosing with compounds the cells plates are gently agitated to mix and then allowed to incubate for 30 min in a cell culture incubator. After dose completion, the cells are stimulated with the addition of 20 μL per well of Hepatocyte Growth Factor (HGF) at a final concentration of 100 ng/mL in RSM (all wells except MIN wells are stimulated, MIN wells are dosed with 20 μL RSM). After 10 min incubation in a cell culture incubator, the liquid is removed from the cell plate wells, and the cells are lysed by the addition of 50 μL of ice-cold Meso Scale Discovery® (MSD, Gaithersburg, Md.) IX Lysis Buffer (150 mM NaCl, 20 mM Tris, pH7.5, 1 mM EDTA, 1 mM ethylene glycol tetraacetic acid, and 1% TRITON® X-100) supplemented with Phosphatase I and II and Protease inhibitors (Sigma, St. Louis, Mo.). After lysis at RT for 30 min the lysates are transferred to and captured on a MSD® Multi-Spot 96-well. 4-spot PhosphoMet plate that is BSA-blocked (at 30 mg/mL Block A in IX Tris Wash Buffer) and then washed one time with Tris Wash Buffer. After 2 hours capture (at RT) the lysates are removed from the MSD® plate and the plate is washed with IX Tris Wash Buffer. After blotting, 25 μL of 5 nM Sulfo-Tag Anti-Total Met antibody (detection antibody, MSD® prepared in IX Tris Wash Buffer supplemented with 10 mg/mL BSA and 0.1% Blocker D-R (MSD®)) is added to the wells of the MSD® plate. After 1 hour capture (at RT) the MSD® plate wells are washed with IX Tris Wash Buffer, and then 150 μL of IX Read Buffer T (with surfactant, MSD®) is added. Immediately after the addition of the Read Buffer, the plates are analyzed with a SECTOR 6000 MSD® Imager plate reader. Relative IC50 values are determined using MSD activity units by calculating percent inhibition with respect to on-plate “MIN” and “MAX” controls and then fitting the percent inhibition values and ten-point dose response data to a four-parameter logistic equation. This assay has a Minimum Significant Ratio (MSR) of 2.06.

For data set [3], the system named is U87MG tumors. The experiment in a line: Xenograft tumor model, U87MG. Type of data set: in vivo, human. To be noted: BID×35, athymic nude mice. Here is the method:
as §1

Data set [4] deals with T2, c-Met phosphorylation in SI 14 tumors (human c-Met) (Homo sapiens, UniProt P08581).
T2 construct: host or cells: SI 14 (S114) cells as subcutaneous tumours in athymic nude mice
T2 sequence (P08581 25-1390): as above
The experiment in a line: c-Met In Vivo Target Inhibition Assay (SI 14 tumors in nude mice, phosphor-Met ELISA). To be noted: oral gavage, read-out: ED50 (dose that produces 50% inhibition in tumor). The protocol: SI 14 cells (licensed from PHS, over-express both human HGF and human c-Met) are cultured in a growth media (Dulbecco's Modified Eagle Medium) supplemented with 10% fetal calf serum and expanded. Cells are harvested and washed twice with phosphate buffered saline and 2×10^6 cells are mixed with equal volume of BD Matrigel™ matrix (BD Bioscience, Franklin, N.J.), and injected subcutaneous Iy into the flank of nude mice (athymic nude, from Harlan, Indianapolis, Ind.). At day 8 after implant, compounds (formulated in 10% acacia or 1% carboxymethylcellulose/0.5% sodium lauryl sulfate/0.05% antifoam as suspension) are administered to animals by oral gavage at 50 mg/kg. Animals are sacrificed at 2 hours post dose, and tumors are harvested and stored frozen until needed.
Frozen tumors are pulverized using motar-pastel. The pulverized tissues are transferred to a tube containing Lysing Matrix D beads (MP Biomedicals, Solon, Ohio) and 600 μL lysis buffer (RIPA buffer, containing 50 mM Tris-HCl, pH7.4, 150 mM NaCl, 1% NP-40, 0.5% sodium deoxycholate, 0.1% SDS, from Boston Bioproducts). A FastPrep® Cell Disrupter (MP Biomedicals) is used to disrupt the tissue and lyse the cells. […] Protein concentration is determined by Bradford method. Tumor lysates are loaded onto MSD® phosphor-Met ELISA plates and phosphor-c-Met level is determined using the same protocol as H460 cell-based ELISA. […]
(In general: ELISA stands for enzyme-linked immunosorbent assay.)

As to `O=C(Nc1ccc(Oc2ncnc3cc4c(cc23)OCCOCCOCCO4)c(F)c1)c1c[nH]cc(-c2ccc(F)cc2)c1=O` [Example 1, 5-(4-Fluoro-phenyl)-4-oxo-1,4-dihydro-pyridine-3-carboxylic acid [3-fluoro-4-(7,8,10,11,13,14-hexahydro-6,9,12,15-tetraoxa-1,3-diaza-cyclododeca[b]naphthalen-4-yloxy)-phenyl]-amide], the melting point was in the range of 188 to 190 °C. For the same compound, in data set [1], the “anti-tumor activity in xenograft models” value is reported as “excellent dose dependent anti-tumor activity”. In data set [2], the “Mean (Counts − Blanks)” value was 50; the “Mean of Activity (% Control)” value came to 0 % Control; the “Activity (% Control)” value is listed as 0 % Control; the Counts is 1008 and 895. Besides, the IC50 in data set [2] (NCI-H460 cells, HGF 100 ng/mL, Example 1 value is average of n=6, read-out: IC50 (inhibition of c-Met phosphorylation in cells)) was determined as 35.2 nM. The “growth inhibition of U87MG tumors” value in data set [3] (30 mg/kg PO) was determined as 59%. Besides, the “growth inhibition of U87MG tumors” value in data set [3] (60 mg/kg PO) came to 82%. In addition, the “growth inhibition of U87MG tumors” value in data set [3] (120 mg/kg PO) was 92%. For the same compound, the ED50 in data set [4] was found to be 2.9 mg/kg.
`O=C(Nc1ccc(Oc2ncnc3cc4c(cc23)OCO4)c(F)c1)c1c[nH]cc(-c2ccc(F)cc2)c1=O` [Example 9, 5-(4-Fluoro-phenyl)-4-oxo-1,4-dihydro-pyridine-3-carboxylic acid [4-([1,3]dioxolo[4,5-g]quinazolin-8-yloxy)-3-fluoro-phenyl]-amide]: in data set [2], the “Mean (Counts − Blanks)” value stood at 27649; the “Mean of Activity (% Control)” value stood at 19 % Control; the Counts was 28364 and 28738. In data set [2] (0.2 µM), the “Activity (% Control)” value was 18 % Control and 20 % Control.
Consider `O=C(Nc1ccc(Oc2ccnc3cc4c(cc23)OCCOCCOCCO4)c(F)c1)c1c[nH]cc(-c2ccc(F)cc2)c1=O` [Example 10, 5-(4-Fluoro-phenyl)-4-oxo-1,4-dihydro-pyridine-3-carboxylic acid [3-fluoro-4-(7,8,10,11,13,14-hexahydro-6,9,12,15-tetraoxa-1-aza-cyclododeca[b]naphthalen-4-yloxy)-phenyl]-amide], for which the melting point lay in the range of 188 to 190 °C. Further, in data set [2], the “Mean (Counts − Blanks)” value is on record as 28866; the “Mean of Activity (% Control)” value stood at 25 % Control; the Counts was 30524 and 29012. Also, the “Activity (% Control)” value in data set [2] (0.2 µM) was 28 % Control and 21 % Control.
